Test results: patent US7199131B2, “Sulfonamide and sulfamide substituted imidazoquinolines” (3M Innovative Properties Company, priority 2001, dated 2007)
Where a name gives a salt, the structure may show the parent alone.

Key:
interferon (α) = experiment: Cytokine Induction in Human Cells: interferon (α) secreted by PBMCs, ELISA; format: cell-based; conditions: incubated 18 to 24 hours, lowest concentration found to induce interferon
Source text: (§1) An in vitro human blood cell system was used to assess cytokine induction by compounds of the invention. Activity is based on the measurement of interferon and tumor necrosis factor (α) (IFN and TNF, respectively) secreted into culture media as described by Testerman et. al. In “Cytokine Induction by the Immunomodulators Imiquimod and S-27609”, Journal of Leukocyte Biology, 58, 365–372 (September, 1995).
(§2) Whole blood is collected by venipuncture into EDTA vacutainer tubes from healthy human donors. Peripheral blood mononuclear cells (PBMCs) are separated from whole blood by density gradient centrifugation using Histopaque®-1077 (Sigma Chemicals, St. Louis, Mo.). The PBMCs are suspended at 3–4×10^6 cells/mL in RPMI 1640 medium containing 10% fetal bovine serum, 2 mM L-glutamine and 1% penicillin/streptomycin solution (RPMI complete). The PBMC suspension is added to 48 well flat bottom sterile tissue culture plates (Costar, Cambridge, Mass. or Becton Dickinson Labware, Lincoln Park, N.J.) containing an equal volume of RPMI complete media containing test compound.
(§3) The compounds are solubilized in dimethyl sulfoxide (DMSO). The DMSO concentration should not exceed a final concentration of 1% for addition to the culture wells.
(§4) The solution of test compound is added at 60 μM to the first well containing RPMI complete and serial (three fold or ten fold) dilutions are made. The PBMC suspension is then added to the wells in an equal volume, bringing the test compound concentrations to the desired range. The final concentration of PBMC suspension is 1.5–2×10^6 cells/mL. The plates are covered with sterile plastic lids, mixed gently and then incubated for 18 to 24 hours at 37° C. in a 5% carbon dioxide atmosphere.
(§5) Following incubation the plates are centrifuged for 5–10 minutes at 1000 rpm (˜200×g) at 4° C. The cell culture supernatant is removed with a sterile polypropylene pipette and transferred to sterile polypropylene tubes. Samples are maintained at −30 to −70° C. until analysis. The samples are analyzed for interferon (α) and tumor necrosis factor (α) by ELISA
Interferon (α) concentration is determined by ELISA using a Human Multi-Species kit from PBL Biomedical Laboratories, New Brunswick, N.J.
(§6) The table below lists the lowest concentration found to induce interferon and the lowest concentration found to induce tumor necrosis factor for each compound.

[1] = system: tumor necrosis factor (α); experiment: Cytokine Induction in Human Cells: tumor necrosis factor (α) secreted by PBMCs, ELISA; format: cell-based; conditions: incubated 18 to 24 hours, lowest concentration found to induce tumor necrosis factor
Source text: as §1, §2, §3, §4, §5
Tumor necrosis factor (α) (TNF) concentration is determined using ELISA kits available from Genzyme, Cambridge, Mass.; R&D Systems, Minneapolis, Minn.; or Pharmingen, San Diego, Calif.
as §6

SMILES | melting point [°C] | minimal effective concentration (interferon (α); PBMC) [µM] | minimal effective concentration ([1]; PBMC) [µM] | minimal effective concentration (interferon (α)) [µM] | minimal effective concentration [1] [µM]
COCCc1nc2c(N)nc3ccccc3c2n1CCCCCCCCNS(C)(=O)=O [Example 243, N-{8-[4-amino-2-(2-methoxyethyl)-1H-imidazo[4,5-c]quinolin-1-yl]octyl}methanesulfonamide] | 109 to 110 | 0.01 | 0.01 |  | 
Cc1nc2c(N)nc3ccccc3c2n1CCCCNS(=O)(=O)c1ccccc1 [Example 237, N-[4-(4-amino-2-methyl-1H-imidazo[4,5-c]quinolin-1-yl)butyl]benzenesulfonamide] | 215.4 to 216 | 0.37 | 0.04 |  | 
Cc1nc2c(N)nc3ccccc3c2n1CCCCNS(C)(=O)=O [Example 238, N-[4-(4-amino-2-methyl-1H-imidazo[4,5-c]quinolin-1-yl)butyl]methanesulfonanide] | 229.4 to 230.5 | 0.04 | 0.37 |  | 
CCCCc1nc2c(N)nc3ccccc3c2n1CCCNS(=O)(=O)c1ccc(C)cc1 [Example 246, N-[3-(4-amino-2-butyl-1H-imidazo[4,5-c]quinolin-1-yl)propyl]-4-methylbenzenesulfonamide] | 197 to 198.5 | 1.11 | 3.33 |  | 
CCCCCCc1nc2c(N)nc3ccccc3c2n1CCCCNS(C)(=O)=O [Example 241, N-[4-(4-amino-2-hexyl-1H-imidazo[4,5-c]quinolin-1-yl)butyl]methanesulfonamide] | 170.2 to 171.1 | 0.12 | 1.11 |  | 
COCCc1nc2c(N)nc3ccccc3c2n1CCCCCCCCNS(=O)(=O)c1ccccc1 [Example 242, N-{8-[4-amino-2-(2-methoxyethyl)-1H-imidazo[4,5-c]quinolin-1-yl]octyl}benzenesulfonamide] | 146 to 149 | 0.01 | 0.01 |  | 
CCCc1nc2c(N)nc3ccccc3c2n1CCCCNS(=O)(=O)c1ccccc1 [Example 233, N-[4-(4-amino-2-propyl-1H-imidazo[4,5-c]quinolin-1-yl)butyl]benzenesulfonamide] | 158.8 to 160.8 | 0.37 | 1.11 |  | 
CCCCc1nc2c(N)nc3ccccc3c2n1CCCNS(C)(=O)=O [Example 239, N-[3-(4-amino-2-butyl-1H-imidazo[4,5-c]quinolin-1-yl)propyl]methanesulfonamide] | 239.2 to 240.8 | 0.01 | 1.11 |  | 
CCCCCCc1nc2c(N)nc3ccccc3c2n1CCCCNS(=O)(=O)c1ccccc1 [Example 234, N-[4-(4-amino-2-hexyl-1H-imidazo[4,5-c]quinolin-1-yl)butyl]benzenesulfonamide] | 84.8 to 85.4 | 1.11 | 1.11 |  | 
CCCCc1nc2c(N)nc3ccccc3c2n1CCCCCCCCNS(C)(=O)=O [Example 244, N-[8-(4-amino-2-butyl-1H-imidazo[4,5-c]quinolin-1-yl)octyl]methanesulfonamide] | 121 to 124 | 0.01 | 0.01 |  | 
CCCCc1nc2c(N)nc3ccccc3c2n1CCNS(C)(=O)=O [Example 34, N-[2-(4-Amino-2-butyl-1H-imidazo[4,5-c]quinolin-1-yl)ethyl]methanesulfonamide Trifluoroacetate] |  |  |  | 0.04 | 0.37

Further lines, with some results ahead:

melting point [°C] | SMILES | minimal effective concentration (interferon (α); PBMC) [µM] | minimal effective concentration ([1]; PBMC) [µM] | minimal effective concentration (interferon (α)) [µM] | minimal effective concentration [1] [µM]
173 to 176 | CCCCc1nc2c(N)nc3ccccc3c2n1CCCCN1CCCS1(=O)=O [Example 267, 2-butyl-1-[4-(1,1-dioxidoisothiazolidin-2-yl)butyl]-1H-imidazo[4,5-c]quinolin-4-amine] | 0.01 | 0.12 |  | 
193 to 194 | COCCc1nc2c(N)nc3ccccc3c2n1CCCNS(C)(=O)=O [Example 247, N-{3-[4-amino-2-(2-methoxyethyl)-1H-imidazo[4,5-c]quinolin-1-yl]propyl}methanesulfonamide] | 0.01 | 0.01 |  | 
156.4 to 157.1 | CS(=O)(=O)NCCCCn1c(CCCOc2ccccc2)nc2c(N)nc3ccccc3c21 [Example 262, N-{4-[4-amino-2-(3-phenoxypropyl)-1H-imidazo[4,5-c]quinolin-1-yl]butyl}methanesulfonamide] | > 30 | 10 |  | 
153 to 155 | CS(=O)(=O)NCCCCCCCCn1cnc2c(N)nc3ccccc3c21 [Example 252, N-[8-(4-amino-1H-imidazo[4,5-c]quinolin-1-yl)octyl]methanesulfonamide] | 0.37 | 1.11 |  | 
212 to 214 | CCOCc1nc2c(N)nc3c(c2n1CCCNS(C)(=O)=O)CCCC3 [Example 260, N-{3-[4-amino-2-(ethoxymethyl)-6,7,8,9-tetrahydro-1H-imidazo[4,5-c]quinolin-1-yl]propyl}methanesulfonamide] | 0.01 | 0.37 |  | 
149 to 151 | COCCc1nc2c(N)nc3ccccc3c2n1CCCNS(=O)(=O)c1ccccc1 [Example 249, N-(3-[4-amino-2-(2-methoxyethyl)-1H-imidazo[4,5-c]quinolin-1-yl]propyl)benzenesulfonamide] | 0.01 | 1.11 |  | 
204 to 206 | COCCc1nc2c(N)nc3ccccc3c2n1CC(C)(C)CNS(C)(=O)=O [Example 256, N-{3-[4-amino-2-(2-methoxyethyl)-1H-imidazo[4,5-c]quinolin-1-yl]-2,2-dimethylpropyl}methanesulfonamide] | 0.01 | 0.04 |  | 
236 to 238 | Cc1nc2c(N)nc3ccccc3c2n1CCCNS(C)(=O)=O [Example 258, N-[3-(4-amino-2-methyl-1H-imidazo[4,5-c]quinolin-1-yl)propyl]methanesulfonamide] | 0.37 | 10 |  | 
176 to 178 | CS(=O)(=O)NCCCn1c(CCCOc2ccccc2)nc2c(N)nc3ccccc3c21 [Example 261, N-{3-[4-amino-2-(3-phenoxypropyl)-1H-imidazo[4,5-c]quinolin-1-yl]propyl}methanesulfonamide] | > 30 | 10 |  | 
210 to 211 | CCCCc1nc2c(N)nc3ccccc3c2n1CCNS(C)(=O)=O [Example 265, N-[2-(4-amino-2-butyl-1H-imidazo[4,5-c]quinolin-1-yl)ethyl]methanesulfonamide] | 0.01 | 0.04 |  | 
143 to 144 | CCCCc1nc2c(N)nc3ccccc3c2n1CCCCCCCCNS(=O)(=O)c1ccccc1 [Example 248, N-[8-(4-amino-2-butyl-1H-imidazo[4,5-c]quinolin-1-yl)octyl]benzenesulfonamide] | 0.12 | 0.01 |  | 
